Holding throughout (assay): KINOMEscan (ScanMAX) kinase profiling
Common to all, as to assay type: binding

In assay [1] the target is T1, panel of 468 kinases (Homo sapiens, UniProt P52333).
T1 construct: purchased KINOMEscan (ScanMAX) service
T1 sequence (P52333 1-1124): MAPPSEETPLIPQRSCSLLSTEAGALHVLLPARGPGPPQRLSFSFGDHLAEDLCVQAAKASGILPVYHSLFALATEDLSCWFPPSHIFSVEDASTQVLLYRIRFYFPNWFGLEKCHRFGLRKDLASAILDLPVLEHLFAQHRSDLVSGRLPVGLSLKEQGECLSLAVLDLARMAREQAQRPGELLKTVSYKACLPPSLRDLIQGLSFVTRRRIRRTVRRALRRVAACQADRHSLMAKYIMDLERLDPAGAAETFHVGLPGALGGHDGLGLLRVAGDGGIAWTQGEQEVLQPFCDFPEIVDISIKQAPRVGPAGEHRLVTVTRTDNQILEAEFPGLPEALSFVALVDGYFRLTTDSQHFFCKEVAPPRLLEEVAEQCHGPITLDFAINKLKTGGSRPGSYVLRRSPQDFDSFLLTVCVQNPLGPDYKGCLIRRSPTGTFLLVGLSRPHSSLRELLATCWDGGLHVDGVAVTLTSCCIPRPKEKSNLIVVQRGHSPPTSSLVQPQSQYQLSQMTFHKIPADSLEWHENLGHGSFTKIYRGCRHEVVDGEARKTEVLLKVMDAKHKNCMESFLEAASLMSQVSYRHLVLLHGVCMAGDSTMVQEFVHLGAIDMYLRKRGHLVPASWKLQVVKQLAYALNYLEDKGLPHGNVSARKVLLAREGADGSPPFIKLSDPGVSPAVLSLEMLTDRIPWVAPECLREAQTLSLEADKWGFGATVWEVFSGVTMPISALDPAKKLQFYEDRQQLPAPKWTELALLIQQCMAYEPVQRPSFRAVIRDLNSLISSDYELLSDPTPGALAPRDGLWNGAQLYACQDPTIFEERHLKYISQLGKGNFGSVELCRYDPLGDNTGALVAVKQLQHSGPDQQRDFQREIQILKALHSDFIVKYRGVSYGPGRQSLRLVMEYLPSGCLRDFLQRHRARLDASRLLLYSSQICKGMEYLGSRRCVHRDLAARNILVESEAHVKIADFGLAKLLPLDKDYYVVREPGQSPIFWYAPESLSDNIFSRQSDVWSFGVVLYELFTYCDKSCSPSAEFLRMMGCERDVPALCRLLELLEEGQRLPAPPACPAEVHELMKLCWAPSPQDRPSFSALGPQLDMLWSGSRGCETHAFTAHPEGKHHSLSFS
Conditions: JAK3(JH1domain-catalytic); 1 μM; read-out: % control.

The target of assay [2] is T2, panel of 468 kinases (Homo sapiens, UniProt Q9BX84).
T2 construct: purchased KINOMEscan (ScanMAX) service
The note with it: TRPM6; 1 μM; read-out: % control.

Assay [3] has as its target T3, panel of 468 kinases (Homo sapiens, UniProt P08631).
T3 construct: purchased KINOMEscan (ScanMAX) service
Conditions: HCK; 1 μM; read-out: % control.

Assay [4] deals with T4, panel of 468 kinases (Homo sapiens, UniProt Q13873).
T4 construct: purchased KINOMEscan (ScanMAX) service
T4 sequence (Q13873 27-1038): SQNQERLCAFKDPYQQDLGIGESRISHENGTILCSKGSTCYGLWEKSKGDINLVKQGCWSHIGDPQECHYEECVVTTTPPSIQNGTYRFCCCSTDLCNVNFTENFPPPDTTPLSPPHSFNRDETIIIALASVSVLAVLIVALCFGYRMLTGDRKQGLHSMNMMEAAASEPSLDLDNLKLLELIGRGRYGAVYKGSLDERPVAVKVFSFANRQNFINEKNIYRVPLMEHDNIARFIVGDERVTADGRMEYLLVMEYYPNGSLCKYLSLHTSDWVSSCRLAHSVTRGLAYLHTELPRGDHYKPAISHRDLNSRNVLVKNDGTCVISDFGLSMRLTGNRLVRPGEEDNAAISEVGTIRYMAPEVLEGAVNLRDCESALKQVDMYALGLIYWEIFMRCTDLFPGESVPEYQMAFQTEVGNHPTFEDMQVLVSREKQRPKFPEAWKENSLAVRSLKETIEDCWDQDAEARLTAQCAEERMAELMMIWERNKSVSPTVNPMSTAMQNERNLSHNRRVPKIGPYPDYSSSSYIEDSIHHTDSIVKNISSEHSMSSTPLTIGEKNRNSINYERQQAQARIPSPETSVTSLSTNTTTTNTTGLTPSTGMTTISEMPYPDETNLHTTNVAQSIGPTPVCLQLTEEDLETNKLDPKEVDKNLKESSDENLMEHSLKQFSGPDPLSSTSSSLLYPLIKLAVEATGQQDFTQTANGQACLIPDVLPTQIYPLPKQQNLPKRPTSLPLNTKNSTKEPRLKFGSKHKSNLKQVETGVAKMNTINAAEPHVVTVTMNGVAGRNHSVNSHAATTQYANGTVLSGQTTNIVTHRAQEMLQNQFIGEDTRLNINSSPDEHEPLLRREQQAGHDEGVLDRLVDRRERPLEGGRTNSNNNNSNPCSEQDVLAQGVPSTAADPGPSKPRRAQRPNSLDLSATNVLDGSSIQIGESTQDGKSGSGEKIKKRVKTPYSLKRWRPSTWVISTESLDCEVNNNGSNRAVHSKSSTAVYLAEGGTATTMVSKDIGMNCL
Conditions: BMPR2; 1 μM; read-out: % control.

In assay [5] the target is T5, panel of 468 kinases (Homo sapiens, UniProt Q9Y6R4).
T5 construct: purchased KINOMEscan (ScanMAX) service
Conditions: MAP3K4; 1 μM; read-out: % control.

T2 sequence (Q9BX84 whole entry): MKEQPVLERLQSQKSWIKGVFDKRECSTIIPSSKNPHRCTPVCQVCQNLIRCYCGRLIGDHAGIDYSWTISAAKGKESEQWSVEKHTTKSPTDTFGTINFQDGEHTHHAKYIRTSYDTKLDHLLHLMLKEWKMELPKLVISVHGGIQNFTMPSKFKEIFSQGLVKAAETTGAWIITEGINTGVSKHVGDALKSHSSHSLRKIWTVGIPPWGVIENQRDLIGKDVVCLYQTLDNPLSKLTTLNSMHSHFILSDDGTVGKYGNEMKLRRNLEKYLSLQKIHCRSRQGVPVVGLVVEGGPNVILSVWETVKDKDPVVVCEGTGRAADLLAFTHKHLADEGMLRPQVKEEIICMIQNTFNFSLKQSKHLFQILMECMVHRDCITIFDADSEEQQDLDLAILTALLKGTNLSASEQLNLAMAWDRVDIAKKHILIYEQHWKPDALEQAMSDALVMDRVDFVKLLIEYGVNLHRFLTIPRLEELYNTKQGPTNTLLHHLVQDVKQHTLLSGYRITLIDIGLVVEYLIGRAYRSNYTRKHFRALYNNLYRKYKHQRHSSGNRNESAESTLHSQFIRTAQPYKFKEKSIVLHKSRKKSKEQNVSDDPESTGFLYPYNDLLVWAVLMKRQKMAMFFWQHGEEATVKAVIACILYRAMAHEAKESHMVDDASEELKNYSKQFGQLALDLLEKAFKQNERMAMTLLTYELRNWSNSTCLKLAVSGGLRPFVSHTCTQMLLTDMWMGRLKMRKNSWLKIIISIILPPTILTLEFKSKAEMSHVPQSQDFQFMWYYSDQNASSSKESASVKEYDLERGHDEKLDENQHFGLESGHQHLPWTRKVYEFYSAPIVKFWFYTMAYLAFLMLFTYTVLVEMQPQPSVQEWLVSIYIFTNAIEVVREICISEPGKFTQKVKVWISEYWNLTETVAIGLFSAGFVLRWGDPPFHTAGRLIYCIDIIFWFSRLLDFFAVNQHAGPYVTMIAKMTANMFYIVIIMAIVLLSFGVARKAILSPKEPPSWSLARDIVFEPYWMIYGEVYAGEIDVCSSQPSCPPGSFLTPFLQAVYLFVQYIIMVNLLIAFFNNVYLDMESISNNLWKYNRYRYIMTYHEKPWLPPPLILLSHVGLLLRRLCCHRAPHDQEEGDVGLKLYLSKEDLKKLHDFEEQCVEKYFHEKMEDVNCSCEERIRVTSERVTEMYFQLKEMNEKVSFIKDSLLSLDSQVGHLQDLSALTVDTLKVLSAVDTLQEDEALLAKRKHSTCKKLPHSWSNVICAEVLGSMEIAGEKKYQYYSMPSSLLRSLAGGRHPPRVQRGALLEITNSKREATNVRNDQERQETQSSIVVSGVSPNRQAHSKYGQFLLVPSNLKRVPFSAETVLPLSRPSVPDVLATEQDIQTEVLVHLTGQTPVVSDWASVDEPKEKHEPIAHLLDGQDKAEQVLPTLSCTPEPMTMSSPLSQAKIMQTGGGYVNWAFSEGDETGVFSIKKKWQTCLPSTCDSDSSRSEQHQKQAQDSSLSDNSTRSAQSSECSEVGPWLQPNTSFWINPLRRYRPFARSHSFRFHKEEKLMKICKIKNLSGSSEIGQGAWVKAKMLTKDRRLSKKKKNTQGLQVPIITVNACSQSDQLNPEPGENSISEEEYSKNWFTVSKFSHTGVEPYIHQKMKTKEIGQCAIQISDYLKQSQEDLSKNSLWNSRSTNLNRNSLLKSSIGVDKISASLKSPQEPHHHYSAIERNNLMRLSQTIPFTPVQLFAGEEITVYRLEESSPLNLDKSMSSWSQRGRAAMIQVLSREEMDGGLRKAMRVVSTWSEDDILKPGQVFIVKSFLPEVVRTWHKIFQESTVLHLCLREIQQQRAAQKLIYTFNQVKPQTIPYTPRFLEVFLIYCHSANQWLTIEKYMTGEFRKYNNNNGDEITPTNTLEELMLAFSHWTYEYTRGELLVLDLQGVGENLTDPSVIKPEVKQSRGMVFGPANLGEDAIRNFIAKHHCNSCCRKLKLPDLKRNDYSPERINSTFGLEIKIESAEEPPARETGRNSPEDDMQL
T5 sequence (Q9Y6R4 whole entry): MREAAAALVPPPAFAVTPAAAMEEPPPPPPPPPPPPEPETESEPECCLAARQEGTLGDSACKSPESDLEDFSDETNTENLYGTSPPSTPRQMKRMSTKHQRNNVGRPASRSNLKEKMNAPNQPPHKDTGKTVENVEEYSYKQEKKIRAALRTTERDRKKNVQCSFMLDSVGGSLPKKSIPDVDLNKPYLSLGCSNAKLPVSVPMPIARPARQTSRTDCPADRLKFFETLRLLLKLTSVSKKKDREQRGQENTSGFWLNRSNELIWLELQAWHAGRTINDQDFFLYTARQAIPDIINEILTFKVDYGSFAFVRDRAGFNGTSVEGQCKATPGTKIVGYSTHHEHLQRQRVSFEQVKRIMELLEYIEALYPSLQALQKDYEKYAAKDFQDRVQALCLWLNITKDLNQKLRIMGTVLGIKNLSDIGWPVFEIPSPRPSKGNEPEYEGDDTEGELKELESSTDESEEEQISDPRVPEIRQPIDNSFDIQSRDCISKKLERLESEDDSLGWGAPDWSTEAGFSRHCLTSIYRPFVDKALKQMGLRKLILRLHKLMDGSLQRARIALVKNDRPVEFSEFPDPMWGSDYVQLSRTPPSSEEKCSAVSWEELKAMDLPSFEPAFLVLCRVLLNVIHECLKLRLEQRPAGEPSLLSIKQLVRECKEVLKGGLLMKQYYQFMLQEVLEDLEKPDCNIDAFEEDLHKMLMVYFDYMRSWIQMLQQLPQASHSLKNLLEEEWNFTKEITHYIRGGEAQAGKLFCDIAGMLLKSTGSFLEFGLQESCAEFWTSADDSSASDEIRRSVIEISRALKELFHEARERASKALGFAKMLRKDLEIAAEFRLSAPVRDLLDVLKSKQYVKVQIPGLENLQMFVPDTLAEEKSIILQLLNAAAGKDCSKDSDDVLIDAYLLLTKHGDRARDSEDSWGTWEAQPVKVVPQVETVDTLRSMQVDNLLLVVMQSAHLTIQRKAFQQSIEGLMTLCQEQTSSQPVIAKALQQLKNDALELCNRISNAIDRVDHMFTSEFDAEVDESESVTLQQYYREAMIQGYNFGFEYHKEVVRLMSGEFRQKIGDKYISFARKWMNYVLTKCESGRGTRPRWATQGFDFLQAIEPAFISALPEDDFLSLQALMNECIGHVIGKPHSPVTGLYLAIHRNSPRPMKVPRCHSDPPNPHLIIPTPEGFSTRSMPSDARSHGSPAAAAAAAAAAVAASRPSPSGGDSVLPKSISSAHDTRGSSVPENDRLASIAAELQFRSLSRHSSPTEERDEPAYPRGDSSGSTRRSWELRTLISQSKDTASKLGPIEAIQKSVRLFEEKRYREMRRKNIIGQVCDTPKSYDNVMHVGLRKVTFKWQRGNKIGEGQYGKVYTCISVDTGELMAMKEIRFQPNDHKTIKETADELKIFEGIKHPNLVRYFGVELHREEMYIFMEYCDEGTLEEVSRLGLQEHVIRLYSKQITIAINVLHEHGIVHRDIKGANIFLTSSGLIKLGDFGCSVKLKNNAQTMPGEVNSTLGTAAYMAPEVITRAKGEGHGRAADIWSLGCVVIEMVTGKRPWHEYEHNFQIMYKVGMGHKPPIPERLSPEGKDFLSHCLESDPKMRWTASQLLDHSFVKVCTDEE
T3 sequence (P08631 whole entry): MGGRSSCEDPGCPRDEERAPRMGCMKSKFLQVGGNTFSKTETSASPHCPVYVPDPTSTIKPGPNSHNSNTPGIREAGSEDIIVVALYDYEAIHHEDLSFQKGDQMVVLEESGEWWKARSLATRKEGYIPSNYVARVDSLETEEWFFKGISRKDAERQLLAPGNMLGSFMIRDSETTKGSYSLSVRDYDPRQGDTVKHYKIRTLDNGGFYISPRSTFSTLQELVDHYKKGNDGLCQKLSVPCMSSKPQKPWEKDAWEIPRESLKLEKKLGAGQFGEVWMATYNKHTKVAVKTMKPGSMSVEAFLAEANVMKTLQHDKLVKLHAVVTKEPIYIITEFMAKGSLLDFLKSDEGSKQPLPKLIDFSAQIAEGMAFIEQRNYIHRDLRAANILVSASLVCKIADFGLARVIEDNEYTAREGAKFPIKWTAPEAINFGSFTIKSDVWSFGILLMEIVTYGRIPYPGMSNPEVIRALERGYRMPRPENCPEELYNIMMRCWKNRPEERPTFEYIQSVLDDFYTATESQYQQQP

In the case of `CNc1nc(Nc2ccc(S(=O)(=O)N3CCC(N4CCOCC4)CC3)cc2OC)nc2[nH]cc(Cl)c12` [Compound 12, 5-chloro-N2-(2-methoxy-4-((4-morpholinopiperidin-1-yl)sulfonyl)phenyl)-N4-methyl-7H-pyrrolo[2,3-d]pyrimidine-2,4-diamine], the remaining binding at 1 µM was 77% on panel of 468 kinases [1]; 79% on panel of 468 kinases [2]; 98% at panel of 468 kinases [3]; 97% on panel of 468 kinases [4]; 100% on panel of 468 kinases [5].
With `CNc1nc(Nc2ccc(C(=O)N3CCC(N4CCOCC4)CC3)c3c2OCO3)nc2[nH]cc(Cl)c12` [Compound 75, (7-((5-chloro-4-(methylamino)-7H-pyrrolo[2,3-d]pyrimidin-2-yl)amino)benzo[d][1,3]dioxol-4-yl)(4-morpholinopiperidin-1-yl)methanone], the remaining binding at 1 µM on panel of 468 kinases [1] is 25%; at panel of 468 kinases [2], 85%; at panel of 468 kinases [3], 100%; on panel of 468 kinases [4], 92%; at panel of 468 kinases [5], 100%.
Take `CNc1nc(Nc2ccc(P3(=O)CCN(C4CCOCC4)CC3)cc2OC)nc2[nH]cc(Cl)c12` [Compound 77, 4-(4-((5-chloro-4-(methylamino)-7H-pyrrolo[2,3-d]pyrimidin-2-yl)amino)-3-methoxyphenyl)-1-(tetrahydro-2H-pyran-4-yl)-1,4-azaphosphinane 4-oxide]: the remaining binding at 1 µM amounted to 86% at panel of 468 kinases [1]; 88% at panel of 468 kinases [2]; 100% on panel of 468 kinases [3]; 85% at panel of 468 kinases [4]; 100% on panel of 468 kinases [5].

(Values after patent US12479847B2 (DANA-FARBER CANCER INSTITUTE, INC., priority 2019, dated 2025).)
